Test results reported in article PMC5516890 (Bioconjugate chemistry, 2016).
Entries after “also recorded” stand apart in the source; their conditions may differ.

System: NOD-SCID mice bearing isogenic PSMA^+ PC3 PIP and PSMA^− PC3 flu tumors
Assay: Biodistribution in tumor-bearing mice
Conditions: for PSMA^+ PIP tumor uptake: PSMA+ PC3 PIP xenograft; for PSMA^− flu tumor uptake: PSMA− PC3 flu xenograft
[1] = 30 min postinjection, tail vein, ± SD, n = 3–4
[2] = 60 min postinjection, tail vein, ± SD, n = 3–4
[3] = 120 min postinjection, tail vein, ± SD, n = 3–4
[4] = 240 min postinjection, tail vein, ± SD, n = 3–4

O=C(O)CCC(NC(=O)NC(CCCCNC(=O)c1ccc([18F])nc1)C(=O)O)C(=O)O (stereo not shown) [[^18F]DCFPyL, 2-(3-{1-carboxy-5-[(6-[^18F]fluoropyridine-3-carbonyl)-amino]-pentyl}-ureido)-pentanedioic acid, reference compound]
PSMA^+ PC3 PIP tumor uptake compared to [^18F]YC-88 (1, 2, and 4 h): significantly higher
blood uptake [1]: 1.67 ± 0.54 % ID/g
bone uptake [1]: 1.00 ± 0.51 % ID/g
fat uptake [1]: 1.42 ± 0.51 % ID/g
heart uptake [1]: 0.84 ± 0.16 % ID/g
kidney uptake [1]: 135.28 ± 9.75 % ID/g
large intestine uptake [1]: 1.17 ± 0.06 % ID/g
liver uptake [1]: 3.54 ± 0.20 % ID/g
muscle uptake [1]: 0.54 ± 0.05 % ID/g
salivary gland uptake [1]: 2.60 ± 0.60 % ID/g
small intestine uptake [1]: 0.83 ± 0.03 % ID/g
spleen uptake [1]: 10.67 ± 1.68 % ID/g
stomach uptake [1]: 0.90 ± 0.14 % ID/g
blood uptake [2]: 0.72 ± 0.22 % ID/g
fat uptake [2]: 0.84 ± 0.44 % ID/g
heart uptake [2]: 0.32 ± 0.09 % ID/g
large intestine uptake [2]: 0.49 ± 0.05 % ID/g
liver uptake [2]: 3.48 ± 0.21 % ID/g
lung uptake [2]: 1.41 ± 0.25 % ID/g
muscle uptake [2]: 0.36 ± 0.18 % ID/g
pancreas uptake [2]: 0.61 ± 0.21 % ID/g
salivary gland uptake [2]: 1.57 ± 0.18 % ID/g
small intestine uptake [2]: 0.56 ± 0.12 % ID/g
spleen uptake [2]: 5.61 ± 0.56 % ID/g
stomach uptake [2]: 0.50 ± 0.10 % ID/g
bladder (empty) uptake [3]: 11.40 ± 9.95 % ID/g
blood uptake [3]: 0.23 ± 0.05 % ID/g
bone uptake [3]: 0.37 ± 0.05 % ID/g
fat uptake [3]: 0.15 ± 0.02 % ID/g
kidney uptake [3]: 61.23 ± 20.36 % ID/g
liver uptake [3]: 3.08 ± 0.13 % ID/g
lung uptake [3]: 0.41 ± 0.09 % ID/g
muscle uptake [3]: 0.08 ± 0.02 % ID/g
pancreas uptake [3]: 0.23 ± 0.05 % ID/g
salivary gland uptake [3]: 0.43 ± 0.15 % ID/g
small intestine uptake [3]: 0.55 ± 0.50 % ID/g
spleen uptake [3]: 1.64 ± 0.40 % ID/g
stomach uptake [3]: 0.21 ± 0.06 % ID/g
bladder (empty) uptake [4]: 16.85 ± 10.15 % ID/g
blood uptake [4]: 0.11 ± 0.00 % ID/g
bone uptake [4]: 0.71 ± 0.40 % ID/g
fat uptake [4]: 0.10 ± 0.05 % ID/g
heart uptake [4]: 0.06 ± 0.01 % ID/g
kidney uptake [4]: 19.36 ± 2.32 % ID/g
large intestine uptake [4]: 0.83 ± 1.00 % ID/g
liver uptake [4]: 2.30 ± 0.28 % ID/g
lung uptake [4]: 0.16 ± 0.02 % ID/g
muscle uptake [4]: 0.07 ± 0.04 % ID/g
pancreas uptake [4]: 0.09 ± 0.02 % ID/g
salivary gland uptake [4]: 0.32 ± 0.22 % ID/g
small intestine uptake [4]: 0.16 ± 0.04 % ID/g
spleen uptake [4]: 0.55 ± 0.11 % ID/g
stomach uptake [4]: 0.09 ± 0.03 % ID/g
PSMA^+ PIP tumor uptake [1]: 64.85 ± 19.22 % ID/g
PSMA^+ PIP tumor uptake [2]: 84.29 ± 12.29 % ID/g
PSMA^+ PIP tumor uptake [3]: 69.55 ± 1.71 % ID/g
PSMA^+ PIP tumor uptake [4]: 74.34 ± 7.28 % ID/g
PSMA^− flu tumor uptake [1]: 1.50 ± 0.71 % ID/g
PSMA^− flu tumor uptake [2]: 0.46 ± 0.06 % ID/g
PSMA^− flu tumor uptake [3]: 0.21 ± 0.06 % ID/g
PSMA^− flu tumor uptake [4]: 0.21 ± 0.17 % ID/g

O=C(O)CCC(NC(=O)NC(CCCCNC(=O)CCc1cn(CC[18F])nn1)C(=O)O)C(=O)O (stereo not shown) [[^18F]YC-88, 2-[3-(1-carboxy-5-{3-[1-(2-[^18F]fluoroethyl)-1H-1,2,3-triazol-yl]propanamido}pentyl)ureido]-pentanedioic acid]
difference in PSMA^+ PC3 PIP tumor uptake between [^18F]YC-88 and [^18F]DCFPyL (30 min, P > 0.05): not statistically significant
salivary gland uptake compared to [^18F]DCFPyL (30 min and 1 h postinjection): significantly less; also recorded: significantly lower
PIP/flu uptake ratio (30 min postinjection): 70
PIP/kidney uptake ratio (tumor-to-kidney) (30 min postinjection): 0.9
bladder (empty) uptake [1]: 17.90 ± 14.18 % ID/g
blood uptake [1]: 1.02 ± 0.43 % ID/g
bone uptake [1]: 0.40 ± 0.16 % ID/g
fat uptake [1]: 0.33 ± 0.08 % ID/g
heart uptake [1]: 0.36 ± 0.18 % ID/g
kidney uptake [1]: 44.08 ± 12.52 % ID/g
large intestine uptake [1]: 0.87 ± 0.85 % ID/g
liver uptake [1]: 1.70 ± 0.21 % ID/g
lung uptake [1]: 1.09 ± 0.31 % ID/g
muscle uptake [1]: 0.22 ± 0.07 % ID/g
pancreas uptake [1]: 0.44 ± 0.13 % ID/g
salivary gland uptake [1]: 0.85 ± 0.39 % ID/g
small intestine uptake [1]: 0.37 ± 0.11 % ID/g
spleen uptake [1]: 1.67 ± 0.46 % ID/g
stomach uptake [1]: 0.41 ± 0.14 % ID/g
PIP/flu uptake ratio (60 min postinjection): 170
PIP/kidney uptake ratio (tumor-to-kidney) (60 min postinjection): 2.4
bladder (empty) uptake [2]: 7.78 ± 4.15 % ID/g
blood uptake [2]: 0.29 ± 0.08 % ID/g
bone uptake [2]: 0.16 ± 0.04 % ID/g
fat uptake [2]: 0.31 ± 0.18 % ID/g
heart uptake [2]: 0.18 ± 0.06 % ID/g
kidney uptake [2]: 20.08 ± 8.09 % ID/g
large intestine uptake [2]: 0.27 ± 0.14 % ID/g
liver uptake [2]: 1.73 ± 0.14 % ID/g
lung uptake [2]: 0.49 ± 0.24 % ID/g
muscle uptake [2]: 0.11 ± 0.06 % ID/g
pancreas uptake [2]: 0.16 ± 0.06 % ID/g
salivary gland uptake [2]: 0.31 ± 0.07 % ID/g
small intestine uptake [2]: 0.23 ± 0.04 % ID/g
spleen uptake [2]: 0.69 ± 0.23 % ID/g
stomach uptake [2]: 0.34 ± 0.20 % ID/g
PIP/flu uptake ratio (120 min postinjection): 243
PIP/kidney uptake ratio (tumor-to-kidney) (120 min postinjection): 4
bladder (empty) uptake [3]: 4.33 ± 2.64 % ID/g
blood uptake [3]: 0.28 ± 0.23 % ID/g
bone uptake [3]: 0.37 ± 0.36 % ID/g
fat uptake [3]: 0.17 ± 0.10 % ID/g
heart uptake [3]: 0.07 ± 0.02 % ID/g
kidney uptake [3]: 10.20 ± 2.76 % ID/g
large intestine uptake [3]: 0.31 ± 0.13 % ID/g
liver uptake [3]: 1.74 ± 0.23 % ID/g
lung uptake [3]: 0.22 ± 0.10 % ID/g
muscle uptake [3]: 0.10 ± 0.03 % ID/g
pancreas uptake [3]: 0.11 ± 0.06 % ID/g
salivary gland uptake [3]: 0.25 ± 0.07 % ID/g
small intestine uptake [3]: 0.18 ± 0.07 % ID/g
spleen uptake [3]: 0.29 ± 0.16 % ID/g
stomach uptake [3]: 0.12 ± 0.07 % ID/g
PIP/flu uptake ratio (240 min postinjection): 368
PIP/kidney uptake ratio (tumor-to-kidney) (240 min postinjection): 6.7
bladder (empty) uptake [4]: 1.22 ± 0.89 % ID/g
blood uptake [4]: 0.12 ± 0.04 % ID/g
bone uptake [4]: 0.11 ± 0.03 % ID/g
fat uptake [4]: 0.10 ± 0.04 % ID/g
heart uptake [4]: 0.04 ± 0.01 % ID/g
kidney uptake [4]: 3.84 ± 0.29 % ID/g
large intestine uptake [4]: 0.23 ± 0.09 % ID/g
liver uptake [4]: 1.45 ± 0.14 % ID/g
lung uptake [4]: 0.13 ± 0.02 % ID/g
muscle uptake [4]: 0.06 ± 0.03 % ID/g
pancreas uptake [4]: 0.07 ± 0.02 % ID/g
salivary gland uptake [4]: 0.14 ± 0.02 % ID/g
small intestine uptake [4]: 0.14 ± 0.03 % ID/g
spleen uptake [4]: 0.15 ± 0.05 % ID/g
stomach uptake [4]: 0.06 ± 0.02 % ID/g
PSMA^+ PIP tumor uptake [1]: 40.31 ± 5.13 % ID/g
PSMA^+ PIP tumor uptake [2]: 47.58 ± 5.19 % ID/g
PSMA^+ PIP tumor uptake [3]: 41.29 ± 4.22 % ID/g
PSMA^+ PIP tumor uptake [4]: 25.74 ± 7.33 % ID/g
PSMA^− flu tumor uptake [1]: 0.58 ± 0.23 % ID/g
PSMA^− flu tumor uptake [2]: 0.28 ± 0.13 % ID/g
PSMA^− flu tumor uptake [3]: 0.17 ± 0.03 % ID/g
PSMA^− flu tumor uptake [4]: 0.07 ± 0.01 % ID/g
kidney, liver, and spleen uptake compared to [^18F]DCFPyL (all time points, two-tailed Student's t test): significantly lower
difference in PSMA^− PC3 flu tumor uptake between the two radiotracers (any time): no significant difference
bone uptake (at all time points): < 1 % ID/g
